In brackets after ≈: the same amount, converted by molar mass. Several values for one entry are separate records, joined by “and”; a condition that tells them apart may be missing. Identical values can stand only once. Like-named read-outs stand apart in the source and are kept apart here. Where only a bound is given, the exact number is not on record here.

The values that follow come from PMC8319603, “Developing C2-Aroyl Indoles as Novel Inhibitors of IDO1 and Understanding Their Mechanism of Inhibition via Mass Spectroscopy, QM/MM Calculations and Molecular Dynamics Simulation” (Frontiers in Chemistry, 2021).

Series [1] has as its target T1, recombinant protein of human IDO1 enzyme (Homo sapiens, UniProt P14902).
T1 construct: purchased Biovision P1096
Put plainly: IDO1 enzymatic assay in vitro (kynurenine formation, absorbance 492 nm). It counts as biochemical. The conditions noted are these: for IC50: read-out: IC50 against IDO1. As for the experimental part:
(§1) The recombinant human IDO/TDO protein were purchased from Biovision (Catalog no.: P1096 human recombinant IDO1 and CSB-YP023351HU human recombinant TDO2). All the other HPLC grade solvent were purchased from Merck Pvt. Ltd. The IDO/TDO assays were performed according to the reported procedures.1 and 2, the details of which is mentioned in the SI.
(§2) 20 µL of IDO1/TDO2 protein (1µg/ml concentration) was added and incubates for 10 min. After that 20 µL of 2 mM L-tryptophan was added and then treated with different test compounds concentration […]
(§3) The plate was then sealed well for 2hr incubation process at 37°C. After incubation, 40 µL of 30% TCA solution was added and again incubated for 15 min at 60 °C, the samples were centrifuged for 15 min at 13000 rpm at 4 °C. The 100 µL of supernatant was transferred in fresh 96 well plate and treated with 100 µL of freshly prepared 2% Ehlrich reagent which was then analyzed by absorbance plate reader at 492 nm to measure the extent of kynurenine formation. The DMSO content in the sample was 0.005 %. The final concentration of the compound in deep well plate was 5 µM. The IC50 values were calculated in triplicate by using GraphPadPrism […]
(§4) 1. Water was substituted with L-tryphtophan
(§5) 2. Water was substituted with L-tryhtophan and rhIDO/ rhTDO protein.
(§6) A = IDO activity in presence of inhibitor

Series [2] can be described thus: Log P determination (octanol/water). Type of series: physicochemical. The source says: (§7) For the DMPK studies of the compound 8a-d we used rat as well as human plasmas. Rat plasma was purchased from Hylasco Biotechnology Pvt. Ltd.™ Hyderabad, India. We have not performed any in vivo experiments for this manuscript neither for animals nor for humans. […] Also please note the blood plasma was obtained from the blood of Dr Srinivas R Maddi, who donated it and is the co-author of this article. The DMPK studies were supplemented by kinetic solubility, Log p and Log D determinations, PAMPA permeability, Metabolic and Plasma stability in rat and human, and finally the plasma folding in rat and human. A thorough discussion of each step is mentioned in the supplementary information. […]
Octanol and buffer layers were analysed by HPLC -UV by
adjusting the needle height for each Octanol and buffer and the amount of compound distributed i nto

The target of series [3] is T2, hIDO1 (ferric-IDO1 and deoxy ferrous-IDO1) (Homo sapiens, UniProt P14902).
T2 construct: purchased Biovision P1096
Put plainly: UV-Vis absorption study of ligand binding to IDO1 (Soret band). Conditions: ligand 25 µM, IDO1 1 µM, pH 6.5; 414 nm without ligand. The procedure:
All the measurements of binding of compound and enzyme were recorded at room temperature using an Agilent Cary 8454 UV-Vis diode array spectrophotometer with 1 cm light path. The experiments were performed in 50 mM potassium phosphate buffer pH- 6.5 with IDO1 protein concentration of 1 µM and compound concentration of 25 µM was incubate for 3 h at 37°C. The deoxy-form of protein was prepared by pre-purged with nitrogen gas and adding […] (∼5 fold excess) in protein with potassium phosphate system.

Series [4] can be described thus: Stability in rat plasma. Type of series: in vitro ADME.
Excerpt: as §7
Stability in rat and human plasma: Plasma stability is defined as the percentage of parent compound lost over time. The frozen plasma was thawed at room temperature and centrifuged at 1400 rpm 4 ℃, for 15 minutes. Approximately 90% of the clear supernatant fraction was transferred to a separate tube and was used for assay. The incubation mixtures consisted of human and rat palsma and compound (1 μM) or positive control (propanthelin, 1 μM) and incubated for 120 min at 37℃ in shaker with 500 rpm. All reactions were terminated using 200 μL of ice-cold acetonitrile containing internal standard (150 ng/mL of telmisartan) at 0, 15, 30, 60 and 120 min and centrifuged at 4000 rpm (Eppendorf, Germany) for 20min. The supernatants thus obtained were analyzed on LC-MS/MS to monitor the disappearance of compound. […]

Series [5] concerns the target T3, recombinant protein of human TDO2 enzyme (Homo sapiens, UniProt P48775).
T3 construct: purchased Biovision CSB-YP023351HU
Description: TDO2 enzymatic assay in vitro (kynurenine formation, absorbance 492 nm). It counts as biochemical. The conditions noted are these: read-out: IC50 against TDO2. The procedure:
as §1, §2, §3, §4, §5, §6

A short description of series [6]: PAMPA permeability. The conditions noted are these: for Papp at 5 h, 100 µM: phosphate buffer at pH 7.4. Type of series: in vitro ADME.
Excerpt: as §7
PAMPA permeability: PAMPA permeability was determined by addition of the compounds to the donor wells at 100µM concentration in a total volume of 300µL in triplicates. The acceptor wells were filled with 200µL of phosphate buffered saline, pH 7.4, while maintaining 5% DMSO concentration on both sides. The plates were sandwiched and incubated for 5hours at room temperature. After incubation, 150µL of the sample from both donor and receiver wells was collected and centrifuged at […]
4000rpm for 20 minutes. […]

A short description of series [7]: Plasma protein binding in human plasma (rapid equilibrium dialysis). It counts as in vitro ADME. The conditions noted are these: pH 7.4, human plasma.
Excerpt: as §7
Plasma protein binding in rat and human plasma: To evaluate the ability of compound to bind the plasma proteins, the most common approach of plasma protein binding using rapid equilibrium dialysis device ( RED inserts) used. Compounds were tested at a final concentration of 10 μM in mouse, rat and human plasma. An aliquot of 500 μL plasma containing compound 3k was added in first half (plasma side) of the well of RED device. An aliquot of 300 μL of 100 mM sodium phosphate buffer pH 7.4 was added in the second half (buffer side) of the Insert. The plate containing plasma and […]

A short description of series [8]: Kinetic solubility. It counts as physicochemical. Conditions: for solubility kinetic at 18 h: phosphate buffered saline, aqueous buffer, kinetic from dmso stock, at 1 mg/ml in phosphate buffer at pH 7.4, read-out: Kinetic solubility of the compounds.
Excerpt: as §7
Kinetic solubility: Solubility of the compounds was dete rmined by incubating the compound at 500
µM concentration in phosphate buffer saline, pH7.4 for 18 hours with constant vortex at 500 rpm.
After incubation period, samples were centrifuged and supernatant was injected into HPLC to
determine the solubility. […]

Series [9] is described as follows: Metabolic stability in dog liver microsomes. It counts as in vitro ADME.
Series [10] in a line: Metabolic stability in human liver microsomes. It counts as in vitro ADME. The procedure: Metabolic stability in mouse, rat and human liver microsomes: Metabolic stability was defined as the percentage of parent compound lost over time in the presence of a metabolically active test system.
The incubation mixtures consisted of liver microsomes 1.0 mg microsomal protein /mL , compound 1 uM or positive control verapamil, 1 uM . The reactions were initiated by adding 1 mM NADPH.
Reactions without NADPH at 0 and 60 min were also incubated to rule out non-NADPH metabolism or chemical instability in the incubation buffer. All reactions were terminated using 200 uL of ice-cold acetonitrile containing internal standard 200 ng/mL of telmisartan at 0, 5, 15, 30 and 60 min. The vials were centrifuged at 4000 rpm for 20 min. The supernatants thus obtained were analyzed on LC-MS/MS to monitor the disappearance of compound. […]

[11] abbreviates: recombinant human IDO1, dose response study.
The mark [12] stands for this setting: 10 μM, read-out: Human plasma protein binding %Ge bound (converted).
[13] abbreviates: 10 μM, read-out: Human plasma protein binding %Ge free.
Setting [14] is: read-out: Fraction unbound in human plasma.

T3 sequence (P48775 whole entry): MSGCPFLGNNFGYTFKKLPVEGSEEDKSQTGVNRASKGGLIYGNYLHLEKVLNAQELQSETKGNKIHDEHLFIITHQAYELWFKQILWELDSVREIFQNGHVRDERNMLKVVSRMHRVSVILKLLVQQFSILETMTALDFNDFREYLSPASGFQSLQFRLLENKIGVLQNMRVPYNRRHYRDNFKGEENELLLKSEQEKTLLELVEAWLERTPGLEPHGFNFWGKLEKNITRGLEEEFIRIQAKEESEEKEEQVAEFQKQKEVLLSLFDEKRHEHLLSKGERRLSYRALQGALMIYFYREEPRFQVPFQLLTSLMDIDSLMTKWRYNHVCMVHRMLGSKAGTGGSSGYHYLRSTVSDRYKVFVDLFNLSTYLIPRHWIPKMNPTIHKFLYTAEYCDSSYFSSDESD
T2 sequence (P14902 whole entry): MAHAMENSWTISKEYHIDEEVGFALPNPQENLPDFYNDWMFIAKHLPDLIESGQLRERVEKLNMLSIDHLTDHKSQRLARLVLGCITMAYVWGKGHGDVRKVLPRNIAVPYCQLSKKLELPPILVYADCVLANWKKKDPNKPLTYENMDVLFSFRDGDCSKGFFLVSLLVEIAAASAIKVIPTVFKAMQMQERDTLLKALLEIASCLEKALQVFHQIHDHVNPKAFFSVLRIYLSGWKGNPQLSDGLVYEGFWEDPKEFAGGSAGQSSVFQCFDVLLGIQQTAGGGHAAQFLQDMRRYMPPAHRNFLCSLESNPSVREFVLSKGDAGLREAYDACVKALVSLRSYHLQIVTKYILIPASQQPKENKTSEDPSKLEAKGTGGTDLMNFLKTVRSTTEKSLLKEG
T1 sequence (P14902 whole entry): as above

For the compound `CC(=O)NCCc1c(C(=O)c2cc(C(F)(F)F)cc(C(F)(F)F)c2)[nH]c2ccccc12` [8a], the “Percentage inhibition of IDO1” value in series [1] (5 μM concentration of compound, 5 µM) was 37%. Moreover, the inhibition at 5 µM in series [1] (5 μM concentration of compound, read-out: Percentage inhibition of IDO1) was about 40%. Besides, the IC50 in series [1] (setting [11]) came out at 1.45 µM. Besides, in series [2], the logP was over 3.5. For the same compound, in series [3], the “Soret band of deoxy ferrous-IDO1 in presence of ligand” value (from here on “Soret band of deoxy ferrous-IDO1”) was 407 nm and 430 nm. For the same compound, the “Rat plasma stability %Ge remaining after 120 min” value in series [4] is given as 84.5%. Moreover, the concentration for half-maximal inhibition (IC50) in [5] is 6.95 µM. Also, in series [6], the “Permeability” value is recorded as “very good” and the Papp at 5 h, 100 µM worked out at 6.8 ×10⁻⁶ cm/s. In addition, the fraction unbound at 10 μM in series [7] (setting [12]) is 0.0064. The fraction unbound at 10 μM in series [7] (setting [13]) came to 0.0064. In addition, the fraction unbound at 10 μM in series [7] (setting [14]) amounted to 0.0064. In addition, in [8], the “Solubility” value is reported as “very good” and the solubility (kinetic) at 18 h was found to be 64.1 µg/mL (≈ 145 µM). In addition, the “Dog liver microsomal stability % QH (hepatic extraction ratio)” value in series [9] stood at 69%. In series [10], the “Human liver microsomal % QH (hepatic extraction ratio)” value was determined as 73.9% and the “Metabolic stability in liver microsomes” value is “unstable”.

Consider `COC(=O)NCCc1c(C(=O)c2ccccc2)[nH]c2ccccc12` [8e], for which the concentration for half-maximal inhibition (IC50) turned out to be 1.52 µM in series [1] (setting [11]) and 16.8 µM in series [5]. The log partition coefficient (logP) in series [2] stood at 2.88. Further, the “Soret band of deoxy ferrous-IDO1” value in [3] was 407 nm. Besides, the “Rat plasma stability %Ge remaining after 120 min” value in series [4] turned out to be 96.3%. The “Permeability” value in series [6] was “very good”. This compound also displayed a Papp at 5 h, 100 µM in series [6] of 32.3 ×10⁻⁶ cm/s. The fraction unbound at 10 μM in [7] (setting [12]) is 0.0213; in series [7] (setting [13]), 0.0213; in series [7] (setting [14]) it was 0.021. Further, the “Solubility” value in series [8] was “very good”. Further, the solubility (kinetic) at 18 h in series [8] worked out at 67.4 µg/mL (≈ 209 µM). Also, the “Dog liver microsomal stability % QH (hepatic extraction ratio)” value in [9] came out at 67%. Further, the “Human liver microsomal % QH (hepatic extraction ratio)” value in series [10] worked out at 58%. For the same compound, in series [10], the “Metabolic stability in liver microsomes” value was “moderately stable”.

For the compound `CC(=O)NCCc1c(C(=O)c2ccc([N+](=O)[O-])cc2)[nH]c2ccccc12` [8d], in series [1] (IDO vs TDO), the “Selectivity for IDO over TDO” value was “reasonable selectivity”. Also, the IC50 in series [1] (recombinant human IDO1) was 0.18 µM; in series [5], 9.16 µM. In addition, the log partition coefficient (logP) in series [2] was found to be 2.67. Moreover, the “Soret band of deoxy ferrous-IDO1” value in [3] was 407 nm. Further, in [4], the “Rat plasma stability %Ge remaining after 120 min” value stood at 91.3%. Further, in [6], the “Permeability” value is “very good”. The same compound gave a Papp at 5 h, 100 µM in series [6] of 15.4 ×10⁻⁶ cm/s. The fraction unbound at 10 μM was 0.0952 in series [7] (setting [12]), 0.0952 in series [7] (setting [13]) and 0.095 in series [7] (setting [14]). In series [8], the “Solubility” value was “very good”. Besides, the solubility (kinetic) at 18 h in [8] stood at 56.9 µg/mL (≈ 162 µM). In addition, the “Dog liver microsomal stability % QH (hepatic extraction ratio)” value in series [9] amounted to 39%. Further, the “Human liver microsomal % QH (hepatic extraction ratio)” value in series [10] was 33% and 32.6%. The “Metabolic stability in liver microsomes” value in series [10] is “moderately stable”.
